The nature of series [1]: Cytotoxicity experiment (MTT method) on C8166 cells. Format: cell-based. The following applies: human. As for the experimental part: (§1) C8166 cells infected with HIV-1 were used for determining the anti-HIV biological activity at the cellular level. The specific method was described below.
Cytotoxicity experiment: The toxicity of the compounds on C8166 cells was determined by MTT method. In 96-well cell culture plates, the compounds were subjected to 5-fold serial dilution and 100 μL of C8166 cell suspension (4×10^5/mL) was added into each well. Triplicate wells were set for each concentration. […] The cells were incubated at 37° C. in a 5% CO2 incubator for three days, followed by the addition of MTT solution into each well, and then the cells were incubated at 37° C. for 4 hours. 10% SDS-50% DMF was added into each well and the cells were incubated at 37° C. in a 5% CO2 incubator overnight. After mixing evenly, the OD values were measured by BIO-TEK ELx800 ELISA instrument (determination wavelength: 570 nm; reference wavelength: 630 nm).

For series [2], the system named is HIV-1IIIB. In words: Syncytium inhibition experiment, C8166 cells infected with HIV-1IIIB. Type of series: cell-based. The settings on record: Human immunodeficiency virus 1, 72 h; HIV-1IIIB (MOI=0.04) in C8166 cells, syncytium count, three days. The procedure:
as §1
Syncytium inhibition experiment: 100 μL of C8166 cell suspension (4×10^5/mL) was seeded into each well of 96-well cell culture plates containing 5-fold serial dilutions of the compounds, followed by addition of HIV-1IIIB diluted supernatant (MOI=0.04). Triplicate wells were set for each serial concentration. […] The cells were cultured at 37° C. in a 5% CO2 incubator for three days. The number of the syncytia was counted in five non-overlapping fields of view by using an inverted microscope (100×).

Setting [3] is: C8166 cells, MTT, three days, read-out: CC50.

Read-outs that look alike come from different tables or passages of the source. A value given as a limit tells only on which side of the number the result lay.

The compound `Cc1cn([C@H]2C[C@H](N=[N+]=[N-])[C@@H](CO)O2)c(=O)[nH]c1=O` [AZT, Zidovudine, reference compound] returned a CC50 at 3 days in series [1] of over 749000 nM. This compound also registered an EC50 in series [2] of 49 nM. With `CCc1c(CC2CCCCC2)nc(SCc2n[nH]c(-c3ccccc3)c2Cl)[nH]c1=O` [Compound I-01], the EC50 in series [2] turned out to be 99 nM. This counts as double-digit nanomolar. For `CCc1c(CC2CCCCC2)nc(SCc2cc(-c3ccccc3)[nH]n2)[nH]c1=O` [Compound I-02], the EC50 in series [2] was 7 nM. This EC50 lies about 14-fold lower than the previous one. On the same count and under the same terms, with `CCc1c(CC2CCCCC2)nc(SCc2cc(-c3cccc(Br)c3)[nH]n2)[nH]c1=O` [Compound I-03] the figure was 51 nM; with `CCc1c(CC2CCCCC2)nc(SCc2n[nH]c(-c3cccc(Br)c3)c2Cl)[nH]c1=O` [Compound I-04], 101 nM. Same read-out and setting: the value for `CCc1c(CC2CCCCC2)nc(SCc2cc(-c3cccc(Cl)c3)[nH]n2)[nH]c1=O` [Compound I-05] was 66 nM; that for `CCc1c(CC2CCCCC2)nc(SCc2n[nH]c(-c3cccc(Cl)c3)c2Cl)[nH]c1=O` [Compound I-06] was 57 nM. On to `CCc1c(CC2CCCCC2)nc(SCc2cc(-c3ccc(Cl)cc3)[nH]n2)[nH]c1=O` [Compound I-07], for which the EC50 in series [2] turned out to be 18 nM. In series [2], `CCc1c(CC2CCCCC2)nc(SCc2cc(-c3ccc(F)cc3)[nH]n2)[nH]c1=O` [Compound I-08] gave an EC50 of 20 nM. For the compound `CCc1c(CC2CCCCC2)nc(SCc2n[nH]c(-c3ccc(F)cc3)c2Cl)[nH]c1=O` [Compound I-09], in series [2], the EC50 was determined as 18 nM.

`CCc1c(CC2CCCCC2)nc(SCc2cc(-c3ccc(OC)cc3)[nH]n2)[nH]c1=O` [Compound I-10] came in with an EC50 in series [2] of 23 nM. The EC50 values of the last two compounds are within 1.5-fold of each other. On the same count and under the same terms, with `CCc1c(CC2CCCCC2)nc(SCc2n[nH]c(-c3ccc(OC)c(Cl)c3)c2Cl)[nH]c1=O` [Compound I-11] the figure was 130 nM; with `CCc1c(CC2CCCCC2)nc(SCc2cc(-c3ccc(Cl)c(Cl)c3)[nH]n2)[nH]c1=O` [Compound I-12], 310 nM; with `CCc1c(CC2CCCCC2)nc(SCc2cc(-c3cccc(F)c3)[nH]n2)[nH]c1=O` [Compound I-14], 35 nM. Still for that read-out and setting: with `CCc1c(CC2CCCCC2)nc(SCc2n[nH]c(-c3cccc(F)c3)c2Cl)[nH]c1=O` [Compound I-15] the figure was 71 nM; with `CCc1c(CC2CCCCC2)nc(SCc2n[nH]c(-c3ccc(Cl)cc3)c2Cl)[nH]c1=O` [Compound I-16], 89 nM; with `CCc1c(CC2CCCCC2)nc(SCc2cc(-c3ccc(O)cc3)[nH]n2)[nH]c1=O` [Compound I-17], 4 nM. As to `CCc1c(CC2CCCCC2)nc(SCc2cc(-c3ccc(F)c(F)c3)[nH]n2)[nH]c1=O` [Compound I-18], in series [2], the EC50 was found to be 162 nM. As to `CCc1c(CC2CCCCC2)nc(SCc2n[nH]c(-c3ccc(F)c(F)c3)c2Cl)[nH]c1=O` [Compound I-19], the EC50 in series [2] was 151 nM. On the same count and under the same terms, with `CCc1c(CC2CCCCC2)nc(SCc2cc(-c3ccc(F)cc3F)[nH]n2)[nH]c1=O` [Compound I-20] the figure was 42 nM.

Consider `CCc1c(CC2CCCCC2)nc(SCc2cc(-c3ccc(C)cc3)[nH]n2)[nH]c1=O` [Compound I-21], for which the CC50 at 3 days in series [1] (setting [3]) was 82800 nM. The compound further returned an EC50 in series [2] of 74 nM. `CCc1c(CC2CCCCC2)nc(SCc2n[nH]c(-c3ccc(C)cc3)c2Cl)[nH]c1=O` [Compound I-22] came in with an EC50 in series [2] of 138 nM. In the case of `CCc1c(CC2CCCCC2)nc(SCc2cc(-c3cccc(C)c3)[nH]n2)[nH]c1=O` [Compound I-23], in series [1] (setting [3]), the CC50 at 3 days was 91400 nM. Further, in series [2], the EC50 worked out at 52 nM. Take `CCc1c(CC2CCCCC2)nc(SCc2n[nH]c(-c3cccc(C)c3)c2Cl)[nH]c1=O` [Compound I-24]: the response in series [2] was half-maximal at 86 nM (EC50). `CCc1c(CC2CCCCC2)nc(SCc2cc(-c3ccc(SC)cc3)[nH]n2)[nH]c1=O` [Compound I-25]: in series [2], a half-maximal response (EC50) required 12 nM.

`CCc1c(CC2CCCCC2)nc(SCc2cc(-c3cccc(C(F)(F)F)c3)[nH]n2)[nH]c1=O` [Compound I-26] came in with an EC50 in series [2] of 302 nM. In series [2], `CCc1c(CC2CCCCC2)nc(SCc2n[nH]c(-c3cccc(C(F)(F)F)c3)c2Cl)[nH]c1=O` [Compound I-27] came in with an EC50 of 182 nM. In series [2], `CCc1c(CC2CCCCC2)nc(SCc2cc(-c3ccc(C(C)C)cc3)[nH]n2)[nH]c1=O` [Compound I-28] gave an EC50 of 147 nM. This EC50 and that of the compound before are within 1.5-fold of each other.

Consider `CCc1c(CC2CCCCC2)nc(SCc2cc(-c3ccc(C)cc3C)[nH]n2)[nH]c1=O` [Compound I-29], for which the EC50 in series [2] came to 476 nM. In series [2], `CCc1c(CC2CCCCC2)nc(SCc2cc(C(C)(C)C)[nH]n2)[nH]c1=O` [Compound I-30] yielded an EC50 of 296 nM.

`CCc1c(CC2CCCCC2)nc(SCc2cc[nH]n2)[nH]c1=O` [Compound I-31]: in series [2], the EC50 was determined as 33 nM. Turning to `CCc1c(CC2CCCCC2)nc(SCc2cc(C)[nH]n2)[nH]c1=O` [Compound I-32], in series [2], the midpoint of the response, the EC50, lay at 28 nM. As to `CCc1c(CC2CCCCC2)nc(SCc2cc(C3CC3)[nH]n2)[nH]c1=O` [Compound I-33], a half-maximal response in series [2] (EC50) required 25 nM.

For `CCc1c(CC2CCCCC2)nc(SCc2cc(-c3ccccn3)[nH]n2)[nH]c1=O` [Compound I-34], a half-maximal response in series [2] (EC50) required 23 nM. The EC50 values of the last two compounds are within 1.5-fold of each other. As for `CC(C)c1c(CC2CCCCC2)nc(SCc2cc(-c3ccccc3)[nH]n2)[nH]c1=O` [Compound I-35], the CC50 at 3 days in series [1] came to 104000 nM. For the same compound, the EC50 in series [2] was determined as 2 nM. In the same order, the values of `CC(C)c1c(CC2CCCCC2)nc(SCc2cc(-c3ccc(Cl)cc3)[nH]n2)[nH]c1=O` [Compound I-36] are 91200 nM and 9 nM. On to `CC(C)c1c(CC2CCCCC2)nc(SCc2n[nH]c(-c3ccc(F)cc3)c2Cl)[nH]c1=O` [Compound I-37], for which the CC50 at 3 days in series [1] was determined as 73000 nM. Moreover, it took 6 nM to reach a half-maximal effect in series [2] (EC50). Take `CC(C)c1c(CC2CCCCC2)nc(SCc2cc(-c3ccc(O)cc3)[nH]n2)[nH]c1=O` [Compound I-38]: the midpoint of cytotoxicity in series [1], the CC50 at 3 days, lay at 156000 nM. Also, the EC50 in series [2] was determined as 3 nM.

`CC(C)c1c(CC2CCCCC2)nc(SCc2cc(-c3ccc(F)cc3)[nH]n2)[nH]c1=O` [Compound I-39] gave a CC50 at 3 days in series [1] of 99000 nM. This compound also yielded an EC50 in series [2] of 16 nM. In turn, `Cc1c(CC2CCCCC2)nc(SCc2cc(-c3ccccc3)[nH]n2)[nH]c1=O` [Compound I-41] came in with an EC50 in series [2] of 186 nM. `Cc1c(CC2CCCCC2)nc(SCc2cc(-c3ccc(F)cc3)[nH]n2)[nH]c1=O` [Compound I-42] gave an EC50 in series [2] of 355 nM. Against the preceding compound, the EC50 is about 1.9-fold higher.

In turn, `COc1ccc(-c2cc(CSc3nc(CC4CCCCC4)c(C)c(=O)[nH]3)n[nH]2)cc1` [Compound I-43] returned an EC50 in series [2] of 194 nM. On the same count and under the same terms, the value for `O=c1cc(CC2CCCCC2)nc(SCc2cc(-c3ccccc3)[nH]n2)[nH]1` [Compound I-44] was 5340 nM. Still for that read-out and setting: the value for `O=c1cc(CC2CCCCC2)nc(SCc2cc(-c3ccc(F)cc3)[nH]n2)[nH]1` [Compound I-45] was 10100 nM; that for `COc1ccc(-c2cc(CSc3nc(CC4CCCCC4)cc(=O)[nH]3)n[nH]2)cc1` [Compound I-46] was 3960 nM. Consider `Cc1c(CC2CCCCC2)nc(SCc2cc(-c3ccc(O)cc3)[nH]n2)[nH]c1=O` [Compound I-47], for which half-maximal cytotoxicity in series [1] (CC50 at 3 days) was put at 61800 nM. In series [2], this compound registered an EC50 of 142 nM. For the compound `O=c1cc(CC2CCCCC2)nc(SCc2n[nH]c(-c3ccccc3)c2Cl)[nH]1` [Compound I-48], in series [1], half-maximal cytotoxicity (CC50 at 3 days) was put at 98900 nM. For the same compound, in series [2], the EC50 amounted to 927 nM.

Consider `Cc1ccnc2c1NC(=O)c1cccnc1N2C1CC1` [NVP, Nevirapine, reference compound], for which, in series [2], the EC50 came to 58.4 nM.

Values taken from US11447470B2, “Pyrimidinone-containing compound, preparation method thereof, pharmaceutical composition and application thereof” (YUNNAN UNIVERSITY, priority 2018, dated 2022).
